The values below are quoted from earlier work in US20060136023A1 (priority 2004, published 2006).

Data set [1] has as its target T1, Plasminogen (Homo sapiens, UniProt P00747). To be noted: clots treated with UK at 4° C.; heating to 28° C.
The target in data set [2] is T1, Plasminogen.
The test system of data set [3] is clots. The note with it: tPA 0.3, 1.0 and 3.0 μg/ml; incubated from 24° C. to 40° C.
Data set [4] has as its system opiate receptor.
Data set [5] concerns shivering threshold. To be noted: in vivo.
Data set [6] concerns clots. To be noted: clots treated with plasminogen (2 mg) and SK (100 IU) in 15 ml PBS; clot temperature raised from 24° C. to 37° C.

T1 sequence (P00747 20-810 limits assumed, species assumed): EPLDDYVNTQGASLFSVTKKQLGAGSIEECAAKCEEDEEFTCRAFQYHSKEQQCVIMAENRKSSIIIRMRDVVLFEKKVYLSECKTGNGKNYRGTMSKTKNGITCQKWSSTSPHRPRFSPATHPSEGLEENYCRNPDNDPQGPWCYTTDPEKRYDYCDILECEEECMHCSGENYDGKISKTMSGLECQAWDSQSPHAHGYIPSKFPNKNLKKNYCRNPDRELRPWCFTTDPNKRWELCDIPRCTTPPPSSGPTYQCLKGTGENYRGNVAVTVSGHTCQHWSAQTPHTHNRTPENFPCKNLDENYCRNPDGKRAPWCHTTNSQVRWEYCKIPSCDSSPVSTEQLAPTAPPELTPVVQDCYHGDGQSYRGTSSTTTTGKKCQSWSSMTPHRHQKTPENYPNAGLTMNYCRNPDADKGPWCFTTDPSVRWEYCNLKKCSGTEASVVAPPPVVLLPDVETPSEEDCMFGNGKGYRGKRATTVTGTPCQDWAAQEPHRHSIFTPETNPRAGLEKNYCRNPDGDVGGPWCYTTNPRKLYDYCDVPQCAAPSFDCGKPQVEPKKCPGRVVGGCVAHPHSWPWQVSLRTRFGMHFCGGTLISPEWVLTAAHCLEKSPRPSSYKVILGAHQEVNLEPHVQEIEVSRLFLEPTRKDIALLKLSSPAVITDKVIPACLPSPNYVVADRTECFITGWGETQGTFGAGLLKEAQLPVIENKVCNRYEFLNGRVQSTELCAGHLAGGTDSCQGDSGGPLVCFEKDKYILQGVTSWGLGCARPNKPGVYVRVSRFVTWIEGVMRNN

On to urokinase [UK], for which the “conversion of plasminogen to plasmin (fibrinolytic activity)” value in data set [1] was “complete conversion of all plasminogen to plasmin”.
As for tissue plasminogen activator [tPA], in data set [2] (2.5 μg/ml tPA, cooling from normal body temperature to a hypothermic temperature), the fibrinolytic activity entry is “increased fibrinolytic activity”. Besides, the Plasminogen activation result in data set [2] (clots treated with 2.5 μg/ml tPA, incubated at 37, 25, 10, 0 and −8° C.) is on record as “relatively high at low temperatures”. Further, the “amount of clot lysis” value in data set [3] is reported as “correlated with temperature at all concentrations”.
For `CCC(=O)OC1(c2ccccc2)CCN(C)CC1C` (racemic) [alpha prodine, Alpha prodine], in data set [4], the “affinity for the opiate receptor, one enantiomer versus the other” value is recorded as “(+) isomer has much greater affinity”.
For the molecule `CCOC(=O)C1(c2ccccc2)CCN(C)CC1` [Meperidine], in data set [5], the “decrease of shivering threshold relative to vasoconstriction threshold” value is “twice as much”; the “effect on the gain and maximum intensity of shivering” value was “does not have much effect”.
With `CN1CC[C@]23c4c5ccc(O)c4O[C@H]2[C@@H](O)C=C[C@H]3[C@H]1C5` [morphine], the antishivering activity result in data set [5] is “less or no antishivering activity”.
For `CN1CCOC(c2ccccc2)c2ccccc2C1` (racemic) [nefopam], the antishivering activity entry in data set [5] is recorded as “prevent post-operative shivering”.
As for `Oc1ccc2c3c1O[C@H]1[C@@H](O)CC[C@@]4(O)[C@@H](C2)N(CC2CCC2)CC[C@]314` [nalbuphine], in data set [5], the antishivering activity entry is on record as “less or no antishivering activity”.
Consider `CCC(=O)O[C@@]1(c2ccccc2)CCN(C)C[C@@H]1C` [beta prodine], for which the “affinity for the opiate receptor, one enantiomer versus the other” value in data set [4] is reported as “(+) isomer has much greater affinity”.
With streptokinase [SK], in data set [6], the fibrinolytic activity result is given as “heating enhanced the fibrinolytic activity”.
Consider `CC(C)=CCN1CCC2(C)c3cc(O)ccc3CC1C2C` (stereo not shown) [pentazocine], for which the antishivering activity entry in data set [5] is listed as “less or no antishivering activity”.
